Test results reported in patent US12398154B2, “Azaquinazoline pan-KRas inhibitors” (Mirati Therapeutics, Inc., priority 2020, dated 2025).

How the values were obtained:
Test in all cases: biochemical
[1] = target: KRas G12A (Homo sapiens, UniProt P01116, G12A);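 further: binding to KRas measured by TR-FRET displacement after one hour at room temperature, IC50 from a four-parameter fit of percent-of-control values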
Experimental: (§1) The ability of a compound to bind to KRas was measured using a TR-FRET displacement assay. […] After a 60-minute incubation at room temperature, the reaction was measured using a BMG LABTECH CLARIO star Plus via TR-FRET. […] The POC values were fit to a 4-parameter IC50 equation and the IC50 value reported.

[2] = target: KRas G12D (Homo sapiens, UniProt P01116, G12D);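 further: TR-FRET displacement binding assay on KRas, read after a one-hour incubation at room temperature, IC50 fitted from percent-of-control values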
Experimental: as §1

[3] = target: KRas WT (Homo sapiens, UniProt P01116);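 further: binding to KRas read as TR-FRET displacement after a one-hour room-temperature incubation, IC50 derived from percent-of-control values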
Experimental: as §1

[4] = target: KRas G12C (Homo sapiens, UniProt P01116, G12C);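 further: binding to KRas assessed by TR-FRET displacement after one hour incubation at room temperature, potency fitted from percent-of-control values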
Experimental: as §1

[5] = target: KRas G12V (Homo sapiens, UniProt P01116, G12V);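 further: KRas binding measured by TR-FRET displacement at room temperature, IC50 fitted from percent of control values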
Experimental: as §1

[6] = target: KRas G12S (Homo sapiens, UniProt P01116, G12S);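 further: TR-FRET displacement binding to KRas, read after one hour incubation at room temperature, IC50 from four-parameter fit of percent of control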
Experimental: as §1

[7] = target: KRas G12R (Homo sapiens, UniProt P01116, G12R);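 further: TR-FRET displacement assay of compound binding to KRas, read after one hour at room temperature, potency from a four-parameter fit of percent-of-control values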
Sequence of KRas G12R (P01116 1-169 isoform P01116-2 G12R): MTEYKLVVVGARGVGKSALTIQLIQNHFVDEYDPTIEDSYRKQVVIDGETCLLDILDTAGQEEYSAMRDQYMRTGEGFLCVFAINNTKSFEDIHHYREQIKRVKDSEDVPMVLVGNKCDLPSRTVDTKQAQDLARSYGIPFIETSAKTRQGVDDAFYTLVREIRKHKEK
Experimental: as §1

Sequence of KRas G12A (P01116 1-169 isoform P01116-2 G12A): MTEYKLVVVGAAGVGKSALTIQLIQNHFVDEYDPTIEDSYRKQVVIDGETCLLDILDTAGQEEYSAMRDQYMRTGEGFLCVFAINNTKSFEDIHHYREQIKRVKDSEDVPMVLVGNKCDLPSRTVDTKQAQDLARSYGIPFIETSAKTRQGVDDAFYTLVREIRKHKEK
Sequence of KRas G12D (P01116 1-169 isoform P01116-2 G12D): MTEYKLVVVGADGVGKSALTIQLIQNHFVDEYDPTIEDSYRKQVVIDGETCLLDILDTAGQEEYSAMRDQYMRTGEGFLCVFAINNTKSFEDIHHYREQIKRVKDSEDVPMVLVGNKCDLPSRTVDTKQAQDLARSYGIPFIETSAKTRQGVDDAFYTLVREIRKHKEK
Sequence of KRas WT (P01116 1-169 isoform P01116-2): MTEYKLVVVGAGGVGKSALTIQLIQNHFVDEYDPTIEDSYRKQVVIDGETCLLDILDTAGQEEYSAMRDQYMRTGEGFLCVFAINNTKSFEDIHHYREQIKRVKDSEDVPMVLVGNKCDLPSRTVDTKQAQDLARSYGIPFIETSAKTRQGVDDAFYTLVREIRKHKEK
Sequence of KRas G12V (P01116 1-169 isoform P01116-2 G12V): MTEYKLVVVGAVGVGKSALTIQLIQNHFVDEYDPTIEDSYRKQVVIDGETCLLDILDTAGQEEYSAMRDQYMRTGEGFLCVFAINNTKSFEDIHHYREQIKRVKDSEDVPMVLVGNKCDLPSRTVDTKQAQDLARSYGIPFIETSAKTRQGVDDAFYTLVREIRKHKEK
Sequence of KRas G12S (P01116 1-169 isoform P01116-2 G12S): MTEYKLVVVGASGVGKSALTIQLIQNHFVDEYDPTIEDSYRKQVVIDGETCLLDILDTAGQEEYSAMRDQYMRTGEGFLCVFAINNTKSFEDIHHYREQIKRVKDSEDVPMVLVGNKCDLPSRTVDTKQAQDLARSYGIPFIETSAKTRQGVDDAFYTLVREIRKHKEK
Sequence of KRas G12C (P01116 1-169 isoform P01116-2 G12C): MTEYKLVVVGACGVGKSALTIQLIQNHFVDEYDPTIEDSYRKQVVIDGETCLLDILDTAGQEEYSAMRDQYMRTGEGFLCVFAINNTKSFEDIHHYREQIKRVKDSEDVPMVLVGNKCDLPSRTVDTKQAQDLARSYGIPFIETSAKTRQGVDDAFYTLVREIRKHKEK

| Compound | IC50 [1] | IC50 [2] | IC50 [3] | IC50 [4] | IC50 [5] | IC50 [6] | IC50 [7] |
| --- | --- | --- | --- | --- | --- | --- | --- |
| N#Cc1cccc2cccc(-c3ncc4c(N5CCCC6(C5)NC(=O)NC6=O)nc(OCC56CCCN5CCC6)nc4c3F)c12 (stereo not drawn) [Example 449, 8-(4-(2,4-dioxo-1,3,7-triazaspiro[4.5]decan-7-yl)-8-fluoro-2-((hexahydro-1H-pyrrolizin-7a-yl)methoxy)pyrido[4,3-d]pyrimidin-7-yl)-1-naphthonitrile] | 5.62 µM | 8.39 µM | 4.07 µM | 3.6 µM | 3.66 µM | 4.16 µM | 4.38 µM |
| O=C1CC2(CCCN(c3nc(OCC45CCCN4CCC5)nc4c(F)c(-c5cccc6cccc(C(F)(F)F)c56)ncc34)C2)N1 (stereo not drawn) [Example 467, 6-(8-fluoro-2-((hexahydro-1H-pyrrolizin-7a-yl)methoxy)-7-(8-(trifluoromethyl)naphthalen-1-yl)pyrido[4,3-d]pyrimidin-4-yl)-1,6-diazaspiro[3.5]nonan-2-one] | 0.968 µM | 0.915 µM | 1.48 µM | 1.11 µM | 0.651 µM | 1.14 µM | 1.02 µM |
| CCc1cccc2cccc(-c3ncc4c(N5CCCC6(C5)NC(=O)NC6=O)nc(OCC56CCCN5CCC6)nc4c3F)c12 (stereo not drawn) [Example 293, 7-(7-(8-ethylnaphthalen-1-yl)-8-fluoro-2-((hexahydro-1H-pyrrolizin-7a-yl)methoxy)pyrido[4,3-d]pyrimidin-4-yl)-1,3,7-triazaspiro[4.5]decane-2,4-dione] | 0.005 µM | 0.01 µM | 0.006 µM | 0.006 µM | 0.004 µM | 0.006 µM | 0.005 µM |
| Cc1cccc2cccc(-c3ncc4c(N5CCCC6(CNC(=O)N6)C5)nc(OCC56CCCN5CCC6)nc4c3F)c12 (stereo not drawn) [Example 454, 7-(8-fluoro-2-((hexahydro-1H-pyrrolizin-7a-yl)methoxy)-7-(8-methylnaphthalen-1-yl)pyrido[4,3-d]pyrimidin-4-yl)-1,3,7-triazaspiro[4.5]decan-2-one] | 0.176 µM | 0.105 µM | 0.163 µM | 0.157 µM | 0.191 µM | 0.167 µM | 0.421 µM |
| CCc1cccc2cccc(-c3ncc4c(N5CCCC6(CC(=O)N6)C5)nc(OCC56CCCN5CCC6)nc4c3F)c12 (stereo not drawn) [Example 288, 6-(7-(8-ethylnaphthalen-1-yl)-8-fluoro-2-((hexahydro-1H-pyrrolizin-7a-yl)methoxy)pyrido[4,3-d]pyrimidin-4-yl)-1,6-diazaspiro[3.5]nonan-2-one] | 0.095 µM | 0.053 µM | 0.089 µM | 0.068 µM | 0.067 µM | 0.082 µM | 0.078 µM |
| Fc1c(-c2cccc3cccc(Cl)c23)ncc2c(NCCCOC(F)F)nc(OCC34CCCN3CCC4)nc12 [Example 474, 7-(8-chloronaphthalen-1-yl)-N-(3-(difluoromethoxy)propyl)-8-fluoro-2-((tetrahydro-1H-pyrrolizin-7a(5H)-yl)methoxy)pyrido[4,3-d]pyrimidin-4-amine] | 2.95 µM | 8.6 µM | 6.17 µM | 2.39 µM | 1.75 µM | 3.45 µM | 3.63 µM |
| C#Cc1cccc2cccc(-c3ncc4c(N5C[C@@H]6C(=O)NC(=O)[C@@H]6C5)nc(OCC56CCCN5CCC6)nc4c3F)c12 [Example 458, (3aR,6aS)-5-(7-(8-ethynylnaphthalen-1-yl)-8-fluoro-2-((hexahydro-1H-pyrrolizin-7a-yl)methoxy)pyrido[4,3-d]pyrimidin-4-yl)tetrahydropyrrolo[3,4-c]pyrrole-1,3(2H,3aH)-dione] | 0.097 µM | 0.015 µM | 0.053 µM | 0.075 µM | 0.039 µM | 0.028 µM | 0.172 µM |
| O=C1NC(=O)C2(CCCN(c3nc(OCC45CCCN4CCC5)nc4c(F)c(-c5cccc6cccc(C(F)F)c56)ncc34)C2)N1 (stereo not drawn) [Example 464, 7-(7-(8-(difluoromethyl)naphthalen-1-yl)-8-fluoro-2-((hexahydro-1H-pyrrolizin-7a-yl)methoxy)pyrido[4,3-d]pyrimidin-4-yl)-1,3,7-triazaspiro[4.5]decane-2,4-dione] | 0.507 µM | 0.986 µM | 0.661 µM | 0.459 µM | 0.469 µM | 0.355 µM | 0.513 µM |
| Fc1c(-c2cccc3cccc(F)c23)ncc2c(Nc3cnc4cnccn34)nc(OCC34CCCN3CCC4)nc12 [Example 34, 8-fluoro-7-(8-fluoronaphthalen-1-yl)-N-(imidazo[1,2-a]pyrazin-3-yl)-2-((tetrahydro-1H-pyrrolizin-7a(5H)-yl)methoxy)pyrido[4,3-d]pyrimidin-4-amine] | 48.7 µM | 11.1 µM | 28.1 µM | 35 µM | 15 µM | 53.5 µM | ≥ 100 µM |
| N#CCc1cccc2cccc(-c3ncc4c(N5CCCC6(CC(=O)N6)C5)nc(OCC56CCCN5CCC6)nc4c3F)c12 (stereo not drawn) [Example 434, 2-(8-(8-fluoro-2-((hexahydro-1H-pyrrolizin-7a-yl)methoxy)-4-(2-oxo-1,6-diazaspiro[3.5]nonan-6-yl)pyrido[4,3-d]pyrimidin-7-yl)naphthalen-1-yl)acetonitrile] | 5.62 µM | 2.2 µM | 5.13 µM | 3.48 µM | 3.21 µM | 3.52 µM | 4.51 µM |
| Cc1cccc2cccc(-c3ncc4c(N5CCCC6(C5)NC(=O)NC6=O)nc(OCC56CCCN5CCC6)nc4c3F)c12 (stereo not drawn) [Example 448, 7-(8-fluoro-2-((hexahydro-1H-pyrrolizin-7a-yl)methoxy)-7-(8-methylnaphthalen-1-yl)pyrido[4,3-d]pyrimidin-4-yl)-1,3,7-triazaspiro[4.5]decane-2,4-dione] | 0.059 µM | 0.087 µM | 0.053 µM | 0.053 µM | 0.054 µM | 0.049 µM | 0.061 µM |
| CSc1cccc2cccc(-c3ncc4c(N5CCCC6(CC(=O)N6)C5)nc(OCC56CCCN5CCC6)nc4c3F)c12 (stereo not drawn) [Example 469, 6-(8-fluoro-2-((hexahydro-1H-pyrrolizin-7a-yl)methoxy)-7-(8-(methylthio)naphthalen-1-yl)pyrido[4,3-d]pyrimidin-4-yl)-1,6-diazaspiro[3.5]nonan-2-one] | 0.18 µM | 0.127 µM | 0.196 µM | 0.135 µM | 0.105 µM | 0.146 µM | 0.149 µM |
| C#Cc1c(F)ccc2cc(O)cc(-c3ncc4c(N5CCCC(O)C5)nc(OCCN(C)C)nc4c3F)c12 (stereo not drawn) [Example 387, 1-(2-(2-(dimethylamino)ethoxy)-7-(8-ethynyl-7-fluoro-3-hydroxynaphthalen-1-yl)-8-fluoropyrido[4,3-d]pyrimidin-4-yl)piperidin-3-ol] | 0.128 µM | 0.124 µM | 0.106 µM | 0.096 µM | 0.13 µM | 0.113 µM | 0.125 µM |
| CCc1cccc2cccc(-c3ncc4c(NCc5cn[nH]c5)nc(OCC56CCCN5CCC6)nc4c3F)c12 [Example 287, N-((1H-pyrazol-4-yl)methyl)-7-(8-ethylnaphthalen-1-yl)-8-fluoro-2-((hexahydro-1H-pyrrolizin-7a-yl)methoxy)pyrido[4,3-d]pyrimidin-4-amine] | 0.648 µM | 8.17 µM | 0.838 µM | 0.321 µM | 0.225 µM | 0.59 µM | 0.225 µM |
| N#Cc1cccc2cccc(-c3ncc4c(N5CCCC6(CC(=O)N6)C5)nc(OCC56CCCN5CCC6)nc4c3F)c12 (stereo not drawn) [Example 451, 8-(8-fluoro-2-((hexahydro-1H-pyrrolizin-7a-yl)methoxy)-4-(2-oxo-1,6-diazaspiro[3.5]nonan-6-yl)pyrido[4,3-d]pyrimidin-7-yl)-1-naphthonitrile] | 3.12 µM | 2.58 µM | 2.27 µM | 1.9 µM | 2.86 µM | 2.06 µM | 4.17 µM |
| NS(=O)(=O)CC1CCCN(c2nc(OCC34CCCN3CCC4)nc3c(F)c(-c4cccc5cccc(CF)c45)ncc23)C1 (stereo not drawn) [Example 460, 1-(1-(8-fluoro-7-(8-(fluoromethyl)naphthalen-1-yl)-2-((hexahydro-1H-pyrrolizin-7a-yl)methoxy)pyrido[4,3-d]pyrimidin-4-yl)piperidin-3-yl)methanesulfonamide] | 0.76 µM | 2.32 µM | 0.693 µM | 0.916 µM | 1.47 µM | 0.759 µM | 0.548 µM |
| O=C1CC2(CCCN(c3nc(OCC45CCCN4CCC5)nc4c(F)c(-c5cccc6cccc(F)c56)ncc34)C2)CN1 (stereo not drawn) [Example 20, 7-(8-fluoro-7-(8-fluoronaphthalen-1-yl)-2-((hexahydro-1H-pyrrolizin-7a-yl)methoxy)pyrido[4,3-d]pyrimidin-4-yl)-2,7-diazaspiro[4.5]decan-3-one] | 2.78 µM | 2.39 µM | 2.97 µM | 3.18 µM | 3.4 µM | 2.98 µM | 7.39 µM |
| Cc1cccc2cccc(-c3ncc4c(N5CCCC(CS(N)(=O)=O)C5)nc(OCC56CCCN5CCC6)nc4c3F)c12 (stereo not drawn) [Example 438, 1-(1-(8-fluoro-2-((hexahydro-1H-pyrrolizin-7a-yl)methoxy)-7-(8-methylnaphthalen-1-yl)pyrido[4,3-d]pyrimidin-4-yl)piperidin-3-yl)methanesulfonamide] | 0.109 µM | 0.238 µM | 0.095 µM | 0.13 µM | 0.239 µM | 0.106 µM | 0.099 µM |
